Data reported in patent US20250268840A1, “USE OF NANO-CARRIERS FOR DELIVERY OF ACTIVE AGENTS” (LANDA LABS (2012) LTD., priority 2022, published 2025).
Values belong to the molecule of their own block, whether it stands above or below them.

How the values were obtained:
[1] = Thermo-rheometer viscosity of WITC (PCL), unplasticized or blended with plasticizing agents / premixes; type: physicochemical
Protocol: Thermo-rheometer: Thermo Scientific (Germany) Haake Mars III, with a C20/1° spindle, a gap of 0.052 mm, and a shear rate of 10 sec^−1. […]
Samples corresponding to the above-described premixes were additionally tested for their viscosity at the end of the mixing step, when the WITCs were at least homogeneously blended with the polar-carrier-insoluble materials, and in most case plasticized by the non-volatile liquids if present. Viscosity was determined as previously described at a shear rate of 10 sec^−1 over a range of temperatures between 20° C. and 80° C., and for all samples so tested the viscosity as measured at 50° C. was typically found to be of less than 10^6 mPa·s, being generally between 10^3 mPa·s and 10^5 mPa·s, often not exceeding 5×10^4 mPa·s, and many samples even having a viscosity of less 10^4 mPa·s.
In a first series of experiments, the viscosity was measured on blends of materials forming a homogeneous mass adapted for nano-sizing by the present methods. PCL and a non-volatile liquid or a fatty amine serving as SFA at various weight per weight ratios were combined in a glass vial and the sealed vials were placed in an oven pre-heated to 80° C. The PCL: non-volatile liquid ratios tested were 1:1 and 1:2.33 and the PCL: fatty amine ratios tested were 1:0.1, 1:0.33, 1:0.5 and 1:1. Following 1 hour of incubation under heat, the contents of the vials were mixed by hand for about 30 seconds, until clear solutions were obtained. The samples were allowed to cool down overnight (i.e., at least 12 hours) at room temperature so as to solidify.
Solid samples were then transferred to a rheometer where their respective viscosity was measured as a function of temperature between room temperature and 70° C. at a ramping up temperature of 10° C./min. The viscosities (or 2nd viscosities) of the samples as measured at 50° C. and 70° C. are summarized in Table 2-II(A), including in the first row the first viscosities of a reference sample made of PCL alone, unplasticized, under same conditions.

[2] = Pharmacokinetic study of tadalafil in plasma after oral administration; type: in vivo, rats (Sprague Dawley); conditions: rats
Protocol: The following pharmacokinetic (PK) study was conducted to determine the efficacy of a composition according to the present teachings, following its oral administration to rats.
Nine young adult healthy rats (Sprague Dawley), having an initial mean body weight of about 243.1 +1.8 g, were used in this study. They were individually tail marked and housed within a limited access caged rodent facility. The rats were randomly divided into groups of 3, and were kept with their groups in cages, in a controlled environment at a temperature of 17-23° C., with a relative humidity (RH) of 30-70%, a 12:12 hour light:dark cycle and 15 air changes/h in the study room. […]
Nano-dispersion ND39, as listed in Table 5-II, was used as the tested composition. ND39 contains tadalafil as the polar-carrier insoluble active agent present in the core of the nano-elements, and its concentration in the rats' blood was monitored. […]
The plasma samples were combined with acetone, allowing the dissolution of the nano-elements and making the tadalafil available for measuring, followed by centrifugation whereby plasma proteins were precipitated. The obtained supernatant was removed and analyzed by LC-MS/MS vs. a tadalafil calibration curve prepared in advance, in the range of 1 ng/ml to 10 ug/ml. […]

[3] = PCL:plasticizing agent w/w ratio 1:1
[4] = PCL:plasticizing agent w/w ratio 1:2.33
[5] = PCL:plasticizing agent w/w ratio 1:0.33
[6] = PCL:plasticizing agent w/w ratio 1:0.5

PCL 2nd viscosity at 50° C. [mPa · s] [1, 3]: 5.0 × 10^3 mPa · s | PCL 2nd viscosity at 70° C. [mPa · s] [1, 3]: 2.2 × 10^3 mPa · s | PCL 2nd viscosity at 50° C. [mPa · s] [1, 4]: 215 mPa · s | PCL 2nd viscosity at 70° C. [mPa · s] [1, 4]: 164 mPa · s
Structure (SMILES): CCCCOC(=O)CCCCC(=O)OCCCC [Cetiol ® B, Dibutyl adipate]

PCL 2nd viscosity at 50° C. [mPa · s] [1, 3]: 544 mPa · s | PCL 2nd viscosity at 70° C. [mPa · s] [1, 3]: 279 mPa · s
Structure (SMILES): CCCCCCCCN(CCCCCCCC)CCCCCCCC [Trioctyl amine]

PCL 2nd viscosity at 50° C. [mPa · s] [1, 5]: 1.9 × 10^3 mPa · s | PCL 2nd viscosity at 70° C. [mPa · s] [1, 5]: 1.7 × 10^3 mPa · s | PCL 2nd viscosity at 50° C. [mPa · s] [1, 6]: 6.7 × 10^3 mPa · s | PCL 2nd viscosity at 70° C. [mPa · s] [1, 6]: 4.4 × 10^3 mPa · s
Structure (SMILES): CCCCCCCC/C=C\CCCCCCCCN [Oleyl amine]

% CV of plasma tadalafil concentration, average for all time points ([2]; 3 animals per time point): 31.1% | AUC0-∞/D (area under curve zero to infinity normalized to dose of tadalafil) ([2]; ND39 about 16 mg/kg, Ref. C about 18.7 mg/kg, Ref. T about 18.1 mg/kg): about 1,249 h.mg/ml
Structure (SMILES): CN1CC(=O)N2[C@H](c3ccc4c(c3)OCO4)c3[nH]c4ccccc4c3C[C@@H]2C1=O [Ref. T, Tadalafil]
